Reference: patent publication US4552882A, “7-(1-Pyrrolyl) derivatives of 1-ethyl-1,4-dihydro-4-oxoquinoline-3-carboxylic acids and 1-ethyl-1,4-dihydro-4-oxo-1,8-naphthyridine-3-carboxylic acids and their use as antimicrobial agents” (Provesan, SA, priority 1983, dated 1985)
In brackets after ≈: the same amount, converted by molar mass.

What was measured:
Assay in all cases: MIC in vitro
Format in all cases: cell-based
[1] = test system: Staphylococcus aureus ATCC 25178; conditions: ATCC25178, Dextrose agar, 37° C., 20 hours
Protocol: (§1) (G. L. Daquet and Y. A. Chabbect, Techniques en bacteriologie (Bacteriological techniques), vol. 3, Flammarion Medecine Sciences, Paris, 1972 and W. B. Hugo and A. D. Rusell, Pharmaceutical Microbiology, Blackwell Scientific Publications, London, (1977)). Antibiotic medium no. 1 (seed agar) (Oxoid CM 327) Tryptone-soya broth (Oxoid CM 129) Ringer's physiological solution 1/4 (oxoid BR 52) Dextrose agar (BBL-11165) 0.1 N NaOH "Staphylococcus aureus" ATCC 25178 Each of the microorganisms is seeded by streaking in tubes of Antibiotic medium No. 1 (seed agar), which are then incubated at 37° C. for 20 hours. Using a culture loop, the cultures are then seeded in tryptone-soyabroth and incubated at 37° C. for 20 hours. The culture obtained is diluted to 1/4 with Ringer's physiological solution, so as to obtain a standardized suspension of 10^7 -10^9 cfu/ml for each organism. Starting from a solution of 1,000 μg/ml in 0.1 N NaOH, each product is diluted in Dextrose agar (previously melted and maintained at 50° C.), with successive dilutions so as to obtain the following concentrations: 64--32--16--8--4--2--1--0.5--0.25--0.125 μg of derivative/ml medium. For each product, the solution of each concentration is subsequently distributed into Petri dishes 10 cm in diameter, with 10 ml of medium per dish and the same number of dishes as microorganisms to be tested. As soon as the medium has cooled, the dishes are seeded with the inoculations using 0.4 ml of inoculation per dish. They are spread with a Driglasky loop and the supernatant is removed. The seeded dishes are incubated at 37° C. for 20 hours.

[2] = test system: Pseudomonas aeruginosa ATCC 25115; conditions: ATCC25115, Dextrose agar, 37° C., 20 hours
Source text: as §1, with “"Pseudomonas aeruginosa"” for “"Staphylococcus aureus"”, “25115” for “25178”

[3] = test system: Bacillus subtilis ATCC 6633; conditions: ATCC6633, Dextrose agar, 37° C., 20 hours
Protocol: as §1, with “"Bacillus subtilis"” for “"Staphylococcus aureus"”, “6633” for “25178”

CCn1cc(C(=O)O)c(=O)c2ccc(-n3cccc3)cc21 [Example 1, 7-(1-pyrrolyl)-1-ethyl-1,4-dihydro-4-oxo-3-quinolinecarboxylic acid]
MIC [1]: 1 µg/mL (≈ 3.54 µM) | MIC [2]: > 64 µg/mL | MIC [3]: < 0.125 µg/mL

CCn1cc(C(=O)O)c(=O)c2cc(F)c(-n3cccc3)cc21 [Example 2, 6-fluoro-7-(1-pyrrolyl)-1-ethyl-1,4-dihydro-4-oxo-3-quinolinecarboxylic acid]
MIC [1]: 0.25 µg/mL (≈ 0.833 µM) | MIC [2]: 16 µg/mL (≈ 53.3 µM) | MIC [3]: < 0.125 µg/mL

CCn1cc(C(=O)O)c(=O)c2ccc(-n3cccc3)nc21 [Example 3, 1-ethyl-1,4-dihydro-4-oxo-7-(1-pyrrolyl)-1,8-naphthyridine-3-carboxylic acid]
MIC [1]: 4 µg/mL (≈ 14.1 µM) | MIC [2]: > 64 µg/mL | MIC [3]: 0.25 µg/mL (≈ 0.882 µM)

CCn1cc(C(=O)O)c(=O)c2cc(F)c(-n3cccc3)nc21 [Example 4, 1-ethyl-1,4-dihydro-4-oxo-6-fluoro-7-(1-pyrrolyl)-1,8-naphthyridine-3-carboxylic acid]
MIC [1]: 0.5 µg/mL (≈ 1.66 µM) | MIC [2]: 32 µg/mL (≈ 106 µM) | MIC [3]: 0.03 µg/mL (≈ 0.0996 µM)

CCn1cc(C(=O)O)c(=O)c2cnc(N3CCNCC3)nc21 [Pipemidic acid, reference compound]
MIC [1]: 64 µg/mL (≈ 211 µM) | MIC [2]: 32 µg/mL (≈ 105 µM) | MIC [3]: 8 µg/mL (≈ 26.4 µM)
